# In the supplement of paper PMC4862054:
# Legend:
# Conditions in all cases: incubation time: 72 h
# MDA-MB-453 [1] = experiment: normalised viability (% of control), CellTiter-Blue; higher = more viable cells (about 100 = DMSO control)
# Protocol: (§1)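 DSRT, CellTiter-Blue viability, 72 h incubation. Signal is normalised to DMSO and benzethonium chloride controls. Value is the normalised response at dose 6.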
# CAL-148 [2] = experiment: as above
# Protocol: as §1
# CAL-51 [3] = experiment: as above
# Protocol: as §1
# CAL-85-1 [4] = experiment: as above
# Protocol: as §1
# DU-4475 [5] = experiment: as above
# Protocol: as §1
# HDQ-P1 [6] = experiment: as above
# Protocol: as §1
# MDA-MB-453 [7] = experiment: normalised response (% of control), CellTiter-Glo; higher = more viable cells (100 = DMSO, 0 = benzethonium chloride kill control)
# Protocol: (§2)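 DSRT, 72 h incubation, CellTox Green / CellTiter-Glo readout. Signal is normalised to DMSO and benzethonium chloride controls. Value is the normalised response at the highest dose.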
# SK-BR-3 = experiment: as above
# Protocol: as §2
# MCF-10A [8] = experiment: as above
# Protocol: as §2
# MDA-MB-468 [9] = experiment: as above
# Protocol: as §2
# CAL-148 [10] = experiment: as above
# Protocol: as §2
# BT-474 [11] = experiment: as above
# Protocol: as §2
# HCC1599 [12] = experiment: as above
# Protocol: as §2
# MFM-223 [13] = experiment: as above
# Protocol: as §2
# CAL-51 [14] = experiment: as above
# Protocol: as §2
# Hs578T [15] = experiment: as above
# Protocol: as §2
# CAL-85-1 [16] = experiment: as above
# Protocol: as §2
# BT-549 [17] = experiment: as above
# Protocol: as §2
# DU-4475 [18] = experiment: as above
# Protocol: as §2
# HCC1937 [19] = experiment: as above
# Protocol: as §2
# HCC1143 [20] = experiment: as above
# Protocol: as §2
# MDA-MB-436 [21] = experiment: as above
# Protocol: as §2
# HDQ-P1 [22] = experiment: as above
# Protocol: as §2
# CAL-120 [23] = experiment: as above
# Protocol: as §2
# MDA-MB-231 [24] = experiment: as above
# Protocol: as §2
# MDA-MB-453 [25] = experiment: normalised response (% of control), CellTox Green; higher = less cell death (100 = DMSO, 0 = benzethonium chloride kill control)
# Outline: (§3)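 Plates were normalised with 0.1 % DMSO as 100 and a positive kill control as 0. Breast cancer cell lines in 20 µl suspension had been seeded into 384-well plates with compound at 5 concentrations in 10-fold steps over a compound-specific 10,000-fold range, incubated 72 h, and read for CellTox Green fluorescence (485/520 nm) followed by CellTiter-Glo luminescence. Each value is the normalised signal at a single concentration.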
# MCF-10A [26] = experiment: as above
# Outline: as §3
# MDA-MB-468 [27] = experiment: as above
# Outline: as §3
# CAL-148 [28] = experiment: as above
# Outline: as §3
# BT-474 [29] = experiment: as above
# Outline: as §3
# HCC1599 [30] = experiment: as above
# Outline: as §3
# MFM-223 [31] = experiment: as above
# Outline: as §3
# CAL-51 [32] = experiment: as above
# Outline: as §3
# Hs578T [33] = experiment: as above
# Outline: as §3
# CAL-85-1 [34] = experiment: as above
# Outline: as §3
# BT-549 [35] = experiment: as above
# Outline: as §3
# DU-4475 [36] = experiment: as above
# Outline: as §3
# HCC1937 [37] = experiment: as above
# Outline: as §3
# HCC1143 [38] = experiment: as above
# Outline: as §3
# MDA-MB-436 [39] = experiment: as above
# Outline: as §3
# HDQ-P1 [40] = experiment: as above
# Outline: as §3
# CAL-120 [41] = experiment: as above
# Outline: as §3
# MDA-MB-231 [42] = experiment: as above
# Outline: as §3
smiles,measurement,setting,value
CN1CCC(COc2cnc(-c3cccc(Cn4nc(-c5cccc(C#N)c5)ccc4=O)c3)nc2)CC1 (300 nM),normalised viability,MDA-MB-453 [1],94.5%
same,normalised viability,CAL-148 [2],86.9%
same,normalised viability,CAL-51 [3],101%
same,normalised viability,CAL-85-1 [4],93.4%
same,normalised viability,DU-4475 [5],105%
same,normalised viability,HDQ-P1 [6],81.3%
CN(C)C/C=C/C(=O)Nc1cc2c(Nc3ccc(F)c(Cl)c3)ncnc2cc1O[C@H]1CCOC1 [Afatinib] (300 nM),normalised viability,MDA-MB-453 [1],36.5%
same,normalised viability,CAL-148 [2],74.2%
same,normalised viability,CAL-51 [3],101%
same,normalised viability,CAL-85-1 [4],52.9%
same,normalised viability,DU-4475 [5],84.6%
same,normalised viability,HDQ-P1 [6],46.1%
COc1cc(Nc2ncc3c(n2)-c2ccc(Cl)cc2C(c2c(F)cccc2OC)=NC3)ccc1C(=O)O [Alisertib] (10000 nM),normalised response,MDA-MB-453 [7],122%
same,normalised response,SK-BR-3,61.5%
same,normalised response,MCF-10A [8],61.4%
same,normalised response,MDA-MB-468 [9],24.1%
same,normalised response,CAL-148 [10],49.7%
same,normalised response,BT-474 [11],62%
same,normalised response,HCC1599 [12],81.5%
same,normalised response,MFM-223 [13],36.7%
same,normalised response,CAL-51 [14],43.5%
same,normalised response,Hs578T [15],66.9%
same,normalised response,CAL-85-1 [16],90.5%
same,normalised response,BT-549 [17],37.2%
same,normalised response,DU-4475 [18],74%
same,normalised response,HCC1937 [19],64.5%
same,normalised response,HCC1143 [20],61.9%
same,normalised response,MDA-MB-436 [21],58.7%
same,normalised response,HDQ-P1 [22],60.5%
same,normalised response,CAL-120 [23],62.2%
same,normalised response,MDA-MB-231 [24],64.5%
same,normalised response,MDA-MB-453 [25],70.1%
same,normalised response,MCF-10A [26],-35.5%
same,normalised response,MDA-MB-468 [27],-5.36%
same,normalised response,CAL-148 [28],63.4%
same,normalised response,BT-474 [29],43.6%
same,normalised response,HCC1599 [30],93.1%
same,normalised response,MFM-223 [31],77.6%
same,normalised response,CAL-51 [32],11.4%
same,normalised response,Hs578T [33],114%
same,normalised response,CAL-85-1 [34],91.2%
same,normalised response,BT-549 [35],63%
same,normalised response,DU-4475 [36],94%
same,normalised response,HCC1937 [37],31.6%
same,normalised response,HCC1143 [38],76%
same,normalised response,MDA-MB-436 [39],78.5%
same,normalised response,HDQ-P1 [40],94.7%
same,normalised response,CAL-120 [41],96.5%
same,normalised response,MDA-MB-231 [42],79.3%
CN1CC[C@H](c2c(O)cc(O)c3c(=O)cc(-c4ccccc4Cl)oc23)[C@H](O)C1 [Alvocidib] (300 nM),normalised viability,MDA-MB-453 [1],32.7%
same,normalised viability,CAL-148 [2],17.5%
same,normalised viability,CAL-51 [3],31.6%
same,normalised viability,CAL-85-1 [4],17.3%
same,normalised viability,DU-4475 [5],1.07%
same,normalised viability,HDQ-P1 [6],24.5%
Nc1nc(Cl)nc2c1ncn2[C@H]1C[C@H](O)[C@@H](CO)O1 [Cladribine] (30 nM),normalised viability,MDA-MB-453 [1],107%
same,normalised viability,CAL-148 [2],108%
same,normalised viability,CAL-51 [3],109%
same,normalised viability,CAL-85-1 [4],102%
same,normalised viability,DU-4475 [5],101%
same,normalised viability,HDQ-P1 [6],90.2%
Nc1ccn([C@@H]2O[C@H](CO)[C@@H](O)[C@@H]2O)c(=O)n1 [Cytarabine] (300 nM),normalised viability,MDA-MB-453 [1],87.5%
same,normalised viability,CAL-148 [2],42.2%
same,normalised viability,CAL-51 [3],51.2%
same,normalised viability,CAL-85-1 [4],89.2%
same,normalised viability,DU-4475 [5],72.6%
same,normalised viability,HDQ-P1 [6],75.1%
Cc1c2oc3c(C)ccc(C(=O)N[C@@H]4C(=O)N[C@H](C(C)C)C(=O)N5CCC[C@H]5C(=O)N(C)CC(=O)N(C)[C@@H](C(C)C)C(=O)O[C@@H]4C)c3nc-2c(C(=O)N[C@@H]2C(=O)N[C@H](C(C)C)C(=O)N3CCC[C@H]3C(=O)N(C)CC(=O)N(C)[C@@H](C(C)C)C(=O)O[C@@H]2C)c(N)c1=O [Dactinomycin] (30 nM),normalised viability,MDA-MB-453 [1],7.48%
same,normalised viability,CAL-148 [2],1.36%
same,normalised viability,CAL-51 [3],4.91%
same,normalised viability,CAL-85-1 [4],4.36%
same,normalised viability,DU-4475 [5],0%
same,normalised viability,HDQ-P1 [6],16.6%
COc1cccc2c1C(=O)c1c(O)c3c(c(O)c1C2=O)C[C@@](O)(C(=O)CO)C[C@@H]3O[C@H]1C[C@H](N)[C@H](O)[C@H](C)O1 [Doxorubicin] (30 nM),normalised viability,MDA-MB-453 [1],100%
same,normalised viability,CAL-148 [2],58.7%
same,normalised viability,CAL-51 [3],87.1%
same,normalised viability,CAL-85-1 [4],92.2%
same,normalised viability,DU-4475 [5],55%
same,normalised viability,HDQ-P1 [6],75.2%
Cc1ccc(F)c(NC(=O)Nc2ccc(-c3cccc4[nH]nc(N)c34)cc2)c1 [Linifanib] (30 nM),normalised viability,MDA-MB-453 [1],96.4%
same,normalised viability,CAL-148 [2],94.1%
same,normalised viability,CAL-51 [3],107%
same,normalised viability,CAL-85-1 [4],118%
same,normalised viability,DU-4475 [5],116%
same,normalised viability,HDQ-P1 [6],96.2%
